Measured values taken from US20260315563A1, “A NOVEL MENTHOL-EUCALYPTUS OIL ANTITUSSIVE SPRAY AND USE THEREOF” (SINO-SHINE BIOPHARMACEUTICAL CO.,LTD, priority 2023, published 2026).
Several values for one entry are separate records, joined by “and”; a condition that tells them apart may be missing. Equal entries are not always repeated. Entries after “also recorded” stand apart in the source; their conditions may differ. Structures can show the parent of a compound that is named as a salt.

Experiments:
TRPV1 = conditions: in vivo; cited from earlier work
[1] = test system: cough induction using LPS and citric acid; test: Animal Experiment 2: antitussive effect in LPS-citric acid cough model (inflammatory cough), guinea pigs; type: in vivo; conditions: for Cough Frequency / Cough Frequency Suppression Rate, Actual Value / Cough Latency: LPS + 0.2 M citric acid
Experimental: 160 guinea pigs, 250 g to 300 g each, half-male and half-female, certificate number 20220908Cdzz0412999409, were purchased from Xinjian Rabbit Farm, Dashiju Town, Xinchang County. The animals were reared at the general laboratory facility with 40% to 60% of humidity, and provided with a cycle of 12 h in the dark and 12 h in light. The animals could freely access to water and food. All operations and experimental procedures complied with the “Regulations on Animal Experiment Management.” • Production license: SCXK (Zhejiang) 2020-0005 • Application license: SCXK (Zhejiang) 2021-0019
Currently, there are barely reports on the models of inflammatory coughs in China and other countries. To closely mimic the occurrence of actual coughs in people suffering from acute respiratory infection, a novel inflammatory cough model was explored ahead of the projected experiments. This novel model was based on the citric acid-induced cough model, but the animals were subject to a LPS pretreatment before beginning with the cough provocation of citric acid.
After 5 days of adaptive feeding, the animal was individually placed in a glass bell jar to allow adaptation for 1 min, and then administrated with the compressed aerosol of 0.4 M citric acid solution (instead of physiological saline for the blank control group) for 10 min. The frequency of cough was recorded during administration of the citric acid aerosol. The guinea pigs with a cough frequency of 10-30 were retained for the formal experiments later. The qualified guinea pigs were randomly divided into the corresponding groups (not fewer than 8 in each group) and were subjected to test the inhalation of the nebulized solvent, menthol, eucalyptus oil, or a combination of menthol and eucalyptus oil for 10 min. After an interval of 15 min post inhalation of the test drug, the animals were administered with the aerosol of 1 mg/mL LPS. 4 hours post the LPS nebulization, the animals were subjected to the second inhalation of the nebulized solvent, menthol, eucalyptus oil, or the combination of menthol and eucalyptus oil for 10 min. Fifteen minutes later, the aerosol of 0.2 M citric acid was administered for cough induction, and the process was recorded by video during the inhalation of citric acid. The duration from the inhalation of the nebulized citric acid to the emergence of first cough was designated as the latency. The control group used solvent for nebulization and cough evoking.
• (1) 0.4 M citric acid: Citric acid was accurately weighed, added into an appropriate volume of pure water to make a final concentration of 0.4 mol/L, and completely dissolved by sonication. • (2) 0.2 M citric acid: Citric acid was accurately weighed, added into an appropriate volume of pure water to make a final concentration of 0.2 mol/L, and completely dissolved by sonication. • (3) Codeine: Codeine was accurately weighed, placed in a mortar and grounded repeatedly, added into an appropriate amount of physiological saline and completely dissolved by sonication. • (4) LPS preparation: LPS was accurately weighed, added into an appropriate amount of physiological saline to make a final concentration of 1 mg/mL, and completely dissolved by vortexing. • (5) Preparations of testing drugs: Initially, 4 g of menthol was dissolved in 10 mL of olive oil (menthol group), or 0.45 mL of eucalyptus oil was sufficiently mixed with 9.55 mL of olive oil (eucalyptus oil group). Afterwards, 5 g of soybean lecithin (previously cut into small pieces) was added to 10 mL of olive oil (control group) or each of the drug groups above, and dissolved by slowly stirring to form a uniform oil phase at 42° C. in a water bath. Further, double distilled water was slowly added to each group in oil phase on a magnetic stirrer and fully emulsified by sufficiently stirring to mix the oil phase with water. […]

[2] = test system: sodium citrate-evoked coughs; test: Animal Experiment 1: antitussive effect in sodium citrate (citric acid)-evoked cough, guinea pigs; type: in vivo; conditions: for Cough Frequency / Cough Latency / Inhibition Rate of Cough: nebulization 10 min, 0.4 M citric acid; for Inhibition Rate of Cough: original model
Experimental: 100 guinea pigs, 250 g to 300 g each, half-male and half-female, were purchased from Beijing Vital River Experimental Animal Technology Co., Ltd., referred to Certificate Numbers 110011220104932418, 110011220104932542. The animals were reared at the general laboratory facility with 40% to 60% of humidity, and provided with a cycle of light: 12 h in dark and 12 h in light. The animals could freely access to water and food. All operations and experimental procedures complied with the “Regulations on Animal Experiment Management.”
At the initial screening step, each guinea pig was individually placed in a glass bell jar to allow adaptation for 1 min and then administered with a compressed aerosol of 0.4 M citric acid solution (instead of physiological saline for the blank control group) for 10 min. The frequency of cough was recorded during administration of the aerosol. The guinea pigs with a cough frequency of 10-30 were retained for the formal experiments later. The qualified guinea pigs were randomly divided into the corresponding groups (not fewer than 10 in each group) and were subjected to test the inhalation of the nebulized solvent, menthol, eucalyptus oil, or a combination of menthol and eucalyptus oil for 10 min. After an interval of 10 min post-inhalation of the test drug, 0.4 M citric acid solution was nebulized and given for inhalation, and the cough frequency was recorded by video from the beginning to the end of the administration of citric acid aerosol. The latency of cough is defined as the period from the inhalation of nebulized citric acid to the appearance of the first cough. The videos were recorded during the period of cough provocation in the experiment.
• (1) 0.4 M sodium citrate: Sodium citrate was accurately weighed, added into an appropriate volume of pure water, completely dissolved by sonication, and finally diluted to 0.4 M for use later. • (2) Codeine: Codeine was accurately weighed, grounded sufficiently in a mortar, transferred into an appropriate amount of physiological saline, and dissolved by sonication. • (3) Preparations of testing drugs: Initially, an oil phase was prepared by dissolving 2 g of menthol in 10 mL of olive oil (menthol group); or well mixing 3.6 mL of eucalyptus oil with 6.4 mL of olive oil (eucalyptus oil group); or adding 2 g of menthol and 3.6 mL of eucalyptus oil/0.6 g of menthol and 3.6 mL of eucalyptus oil/2 g of menthol and 1.2 mL of eucalyptus oil respectively in a corresponding volume of olive oil to make a final 10 mL solution (menthol+eucalyptus oil groups). Afterwards, 5 g of soybean lecithin (cut into small pieces beforehand) was added to 10 mL of olive oil (control group) or each of the drug groups above and dissolved by slowly stirring to form a uniform oil phase at 42° C. in a water bath. Further, double distilled water was slowly added to each group in oil phase on a magnetic stirrer and fully emulsified by sufficiently stirring to mix the oil phase with water. A final emulsion was prepared in a volume of 100 mL and could be further diluted to make a working preparation with the specific concentration of drug (or drugs).
All experimental data were expressed as mean±SEM, and the data-processing software SSPS16.0 was used to conduct the analysis of variance and inter-group t-test. The conclusions were made by comprehensively analyzing all data.

coughs = conditions: in vivo; cited from earlier work
asthma = conditions: clinical trials for asthma; cited from earlier work
[3] = test system: inflammatory factors, such as leukotriene B4 (LTB4), prostaglandin (PGE2), and a variety of cytokines; conditions: cited from earlier work
TRPM8 = conditions: cooling effect; membrane potential depolarization and Ca2+ influx; cited from earlier work
[4] = test system: capsaicin-guinea pig model; conditions: cited from earlier work
[5] = 2% menthol, 3.6% eucalyptus oil, combinations, or 30 mg/mL codeine phosphate, P<0.01

COc1cc(CNC(=O)CCCC/C=C/C(C)C)ccc1O [Capsaicin]
Cough induction by TRPV1 agonists (in words) (TRPV1): evoke coughs in humans and guinea pigs

O=C(O)CC(O)(CC(=O)O)C(=O)O [Citric acid]
Cough induction (in words) ([1]; 0.2 M citric acid after LPS, P<0.01 vs blank control): significantly induce coughs

COc1ccc2c3c1O[C@H]1[C@@H](O)C=C[C@H]4[C@@H](C2)N(C)CC[C@@]341 [Codeine phosphate]
Cough Frequency ([2]; 30 mg/mL codeine phosphate): 7.90 ± 1.61 times | Cough Latency ([2]; 30 mg/mL codeine phosphate): 158.30 ± 17.46 s | Inhibition Rate of Cough ([2]; 30 mg/mL codeine phosphate): 57.30 ± 8.70 % | Cough Frequency ([1]; 30 mg/mL codeine): 8.44 ± 0.71 | Cough Frequency Suppression Rate, Actual Value ([1]; 30 mg/mL codeine): 55.29 ± 3.86 % | Cough Latency ([1]; 30 mg/mL codeine): 134.78 ± 9.72 s

CC12CCC(CC1)C(C)(C)O2 [Eucalyptol, 1,8-Cineol]
Antitussive effect in human clinical trials (in words) (coughs): proven to have anti-inflammatory and antitussive effects in clinical trials; also recorded: confirmed in clinical trials | Replacement of glucocorticoids in asthma (in words) (asthma): partially replace the use of glucocorticoids | Anti-inflammatory effect (in words) [3]: effective anti-inflammatory agent

CC(C)[C@@H]1CC[C@@H](C)C[C@H]1O [Menthol, L-1-methyl-4-isopropylcyclohexan-3-ol]
Activation of TRPM8 (in words) (TRPM8): Activation of TRPM8 | Effect on frequency of coughs / antitussive effect (in words) [2, 5]: reduced the frequency of coughs; also recorded: reduced the cough frequency; also recorded: show antitussive effects | Effect on latency of coughs (in words) [2, 5]: significantly increased the cough latency | Cough Frequency ([2]; 2% menthol): 11.58 ± 1.72 times | Cough Latency ([2]; 2% menthol): 155.50 ± 20.43 s | Inhibition Rate of Cough ([2]; 2% menthol): 37.39 ± 9.30% | Inhibition Rate of Cough ([2]; 2% menthol, listed as menthol): 37.39% and 37.39 ± 9.30 % | Antitussive effect on capsaicin-evoked coughs (in words) [4]: effectively suppress coughs; also recorded: significantly suppressed | Antitussive effect in human clinical trials (in words) (coughs): well verified in human clinical trials | Cough Frequency ([1]; 0.06% menthol): 16.50 ± 1.78 | Cough Frequency Suppression Rate, Actual Value ([1]; 0.06% menthol): 12.65 ± 9.44% | Cough Latency ([1]; 0.06% menthol): 104.88 ± 10.85 s | Cough Frequency ([1]; 0.25% menthol): 14.88 ± 1.90 | Cough Frequency Suppression Rate, Actual Value ([1]; 0.25% menthol): 21.25 ± 10.08% | Cough Latency ([1]; 0.25% menthol): 88.75 ± 15.96 s | Statistical significance of cough suppression (in words) ([1]; 1.0% and 4% menthol, 0.15% and 0.45% eucalyptus oil, P<0.01-0.05): statistical significance; also recorded: statistically attained the significance in cough suppression | Cough Frequency ([1]; 1.0% menthol): 13.13 ± 0.55 | Cough Frequency Suppression Rate, Actual Value ([1]; 1.0% menthol): 28.53 ± 3.00% | Cough Latency ([1]; 1.0% menthol): 116.38 ± 11.30 s | Cough Frequency Suppression Rate, Actual Value ([1]; 1.0% menthol, listed as menthol): 28.53 ± 3.00 % | Cough Frequency ([1]; 4.0% menthol): 11.38 ± 0.82 | Cough Frequency Suppression Rate, Actual Value ([1]; 4.0% menthol): 39.78 ± 4.35% | Cough Latency ([1]; 4.0% menthol): 128.13 ± 13.84 s | Cough Frequency Suppression Rate, Actual Value ([1]; 4.0% menthol, listed as menthol): 39.78% and 39.78 ± 4.35 % | Effect on frequency of coughs (in words) ([1]; menthol 0.06-4%, eucalyptus oil 0.05-0.45%, combinations 0.06-1.0% + 0.05-0.15%, codeine 30 mg/mL): reduce the frequency of coughs in a dose-dependent manner | Efficacy on inflammatory coughs compared with original model (in words) ([1]; novel LPS-citric acid model vs original citric acid model): reduced; also recorded: better activities on non-inflammatory coughs; also recorded: declined

O=C(O)CC(O)(CC(=O)O)C(=O)O [Sodium citrate]
Cough induction (in words) ([2]; 0.4 M sodium citrate, P<0.01 vs control): significantly evoke coughing in guinea pigs | Cough induction by TRPV1 agonists (in words) (TRPV1): evoke coughs in humans and guinea pigs
